Measurements as given in ChEMBL document CHEMBL1201862, “PubChem BioAssay data set” (2004).
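Tested at 5 concentrations; 48 h exposure; 96-well plates; endpoints linearly interpolated, else capped at highest concentration. GI50 is the concentration that inhibits growth by half.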 The source made the active and inactive calls. Cut-off read from the data, not from the text of the source: active = GI50 up to about 1.1 µM and inactive = higher.

Tests used:
Experiment in all cases: NCI tumour cell line growth inhibition, 48 h
[1] = tested on: 786-0
[2] = tested on: A498
[3] = tested on: A549
[4] = tested on: ACHN
[5] = tested on: BT-549
[6] = tested on: CAKI-1
[7] = tested on: CCRF-CEM
[8] = tested on: COLO 205
[9] = tested on: DU-145
[10] = tested on: EKVX
[11] = tested on: HCC 2998
[12] = tested on: HCT-116
[13] = tested on: HCT-15
[14] = tested on: HOP-62
[15] = tested on: HOP-92
[16] = tested on: HT-29
[17] = tested on: Hs-578T
[18] = tested on: K562
[19] = tested on: KM12
[20] = tested on: LOX IMVI
[21] = tested on: M14
[22] = tested on: MCF7
[23] = tested on: MDA-MB-231
[24] = tested on: MDA-MB-435
[25] = tested on: MDA-N
[26] = tested on: MOLT-4
[27] = tested on: Malme-3M
[28] = tested on: NCI-H226
[29] = tested on: NCI-H23
[30] = tested on: NCI-H460
[31] = tested on: NCI-H522
[32] = tested on: NCI/ADR-RES
[33] = tested on: OVCAR-3
[34] = tested on: OVCAR-4
[35] = tested on: OVCAR-5
[36] = tested on: OVCAR-8
[37] = tested on: PC-3
[38] = tested on: RPMI-8226
[39] = tested on: RXF 393
[40] = tested on: SF-268
[41] = tested on: SF-295
[42] = tested on: SF-539
[43] = tested on: SK-MEL-28
[44] = tested on: SK-MEL-2
[45] = tested on: SK-MEL-5
[46] = tested on: SK-OV-3
[47] = tested on: SN12C
[48] = tested on: SNB-19
[49] = tested on: SNB-75
[50] = tested on: SR
[51] = tested on: SW-620
[52] = tested on: T47D
[53] = tested on: TK-10
[54] = tested on: U-251
[55] = tested on: UACC-257
[56] = tested on: UACC-62
[57] = tested on: UO-31
[58] = tested on: HL-60
[59] = tested on: IGROV-1

Measured: GI50

CCOC(=O)c1c(N2CCOCC2)[nH]c(=O)c(C(c2ccco2)c2c(O)c(C(=O)OCC)c(N3CCOCC3)[nH]c2=O)c1O
inactive: [1] > 100 µM | [2] > 100 µM | [3] > 100 µM | [4] > 100 µM | [5] > 100 µM | [6] > 100 µM | [7] > 100 µM | [8] > 100 µM | [9] > 100 µM | [10] > 100 µM | [11] > 100 µM | [12] > 100 µM | [14] > 100 µM | [15] 80.9 µM | [16] > 100 µM | [17] > 100 µM | [18] > 100 µM | [19] > 100 µM | [20] > 100 µM | [21] > 100 µM | [22] > 100 µM | [23] > 100 µM | [24] > 100 µM | [25] > 100 µM | [26] > 100 µM | [27] > 100 µM | [28] > 100 µM | [29] > 100 µM | [30] > 100 µM | [31] > 100 µM | [32] > 100 µM | [33] > 100 µM | [34] > 100 µM | [35] > 100 µM | [36] > 100 µM | [37] > 100 µM | [38] > 100 µM | [39] > 100 µM | [40] > 100 µM | [41] > 100 µM | [42] > 100 µM | [43] > 100 µM | [44] > 100 µM | [45] > 100 µM | [46] > 100 µM | [47] > 100 µM | [48] > 100 µM | [49] > 100 µM | [50] > 100 µM | [51] > 100 µM | [52] > 100 µM | [53] > 100 µM | [54] > 100 µM | [55] > 100 µM | [56] > 100 µM | [57] > 100 µM
> 100 µM: [13]

O=C(/C=C\c1ccsc1)c1ccccc1
active: [58] 0.182 µM
inactive: [1] 7.21 µM | [2] 5.31 µM | [4] 8.05 µM | [5] 12.6 µM | [6] 3.71 µM | [8] 16.2 µM | [9] 12.8 µM | [10] 12.9 µM | [11] 9.44 µM | [12] 3.85 µM | [14] 16.1 µM | [15] 17.6 µM | [16] 4.06 µM | [17] 5.35 µM | [59] 6.9 µM | [18] 4 µM | [19] 2.97 µM | [20] 2.21 µM | [21] 8.47 µM | [22] 1.74 µM | [23] 4.17 µM | [24] 10.6 µM | [25] 12.4 µM | [26] 2.94 µM | [28] 16.5 µM | [29] 5.7 µM | [30] 11.4 µM | [31] 1.68 µM | [32] 12.3 µM | [33] 14.7 µM | [34] 3.94 µM | [35] 16.1 µM | [36] 8.99 µM | [37] 11.1 µM | [38] 2.22 µM | [39] 5.75 µM | [40] 6.9 µM | [41] 15.8 µM | [42] 7.06 µM | [43] 12.4 µM | [44] 16.7 µM | [45] 13.8 µM | [46] 17.1 µM | [47] 12 µM | [48] 13.2 µM | [49] 10.1 µM | [50] 2.38 µM | [51] 2.91 µM | [52] 5.31 µM | [53] 15 µM | [54] 3.78 µM | [55] 16.6 µM | [56] 12.2 µM | [57] 7.1 µM
3.61 µM: [13]

Nc1cc2nc(O)c(O)nc2cc1N
inactive: [1] > 100 µM | [2] > 100 µM | [3] > 100 µM | [4] > 100 µM | [5] > 100 µM | [6] > 100 µM | [7] > 100 µM | [8] > 100 µM | [9] > 100 µM | [10] > 100 µM | [11] > 100 µM | [12] > 100 µM | [58] > 100 µM | [14] > 100 µM | [15] > 100 µM | [16] > 100 µM | [17] > 100 µM | [59] > 100 µM | [18] > 100 µM | [19] > 100 µM | [20] > 100 µM | [22] > 100 µM | [23] > 100 µM | [24] > 100 µM | [25] > 100 µM | [26] > 100 µM | [27] > 100 µM | [28] > 100 µM | [29] > 100 µM | [30] > 100 µM | [32] > 100 µM | [33] > 100 µM | [34] > 100 µM | [35] > 100 µM | [36] > 100 µM | [37] > 100 µM | [38] > 100 µM | [39] > 100 µM | [40] > 100 µM | [41] > 100 µM | [42] > 100 µM | [43] > 100 µM | [44] > 100 µM | [45] > 100 µM | [46] > 100 µM | [47] > 100 µM | [48] > 100 µM | [49] > 100 µM | [50] > 100 µM | [51] > 100 µM | [52] > 100 µM | [53] > 100 µM | [54] > 100 µM | [55] > 100 µM | [56] > 100 µM | [57] > 100 µM
> 100 µM: [13]

Cc1ccc(C(=O)/C=C2\Nc3ccccc3SC2=O)c(C)c1
inactive: [1] 26.2 µM | [2] > 100 µM | [3] 53.3 µM | [4] 28.6 µM | [5] 6.9 µM | [6] 37.2 µM | [7] 36.3 µM | [8] 53.1 µM | [9] 75.7 µM | [10] 54.3 µM | [11] 59.3 µM | [12] 38 µM | [58] 26.9 µM | [14] 32.9 µM | [15] 23.4 µM | [16] 45.6 µM | [17] 32.6 µM | [59] 29.8 µM | [18] 41.3 µM | [19] 46.8 µM | [20] 37.4 µM | [21] 62.1 µM | [22] 31 µM | [23] > 100 µM | [24] 56.2 µM | [25] 62.2 µM | [26] 37.7 µM | [27] 84.3 µM | [28] 30.7 µM | [29] 36.9 µM | [30] 28.6 µM | [31] 26.9 µM | [32] 42.3 µM | [33] 34.1 µM | [34] 26.5 µM | [35] > 100 µM | [36] 35.6 µM | [37] 47.9 µM | [38] 28.5 µM | [40] 25.1 µM | [41] 46.5 µM | [42] 43 µM | [43] 51.1 µM | [44] 42.1 µM | [45] 38.5 µM | [46] 43.9 µM | [47] 40.1 µM | [48] 45.3 µM | [50] 28.3 µM | [52] 61.9 µM | [53] > 100 µM | [54] 44.9 µM | [55] 42 µM | [56] 32.7 µM | [57] 32.5 µM
20.8 µM: [13]
active: [39] < 0.01 µM

N#Cc1c(N)nc2[nH]nc(N)c2c1-c1ccccc1
active: [52] 0.452 µM
5.41 µM: [13]
inactive: [1] 16.8 µM | [2] 1.61 µM | [3] 6.58 µM | [4] 4.63 µM | [5] 7.43 µM | [6] 3.2 µM | [7] 16.4 µM | [8] 5.65 µM | [9] 8.11 µM | [10] 7.74 µM | [11] 16.5 µM | [12] 7.29 µM | [58] 11.2 µM | [14] 27.5 µM | [15] 2.56 µM | [16] 12.2 µM | [17] 5.3 µM | [59] 2.8 µM | [18] > 41.8 µM | [19] 6.4 µM | [20] 3.89 µM | [21] 7.03 µM | [22] 4.59 µM | [23] 4.48 µM | [24] 6.93 µM | [25] 6.04 µM | [26] 4.04 µM | [27] 4.73 µM | [28] 11.8 µM | [29] 6.49 µM | [30] 4.28 µM | [31] 3.72 µM | [32] 15 µM | [33] 3.72 µM | [34] 11.3 µM | [35] 14.9 µM | [36] 12.5 µM | [37] 5.13 µM | [38] > 24.3 µM | [39] 3.78 µM | [40] 10.2 µM | [41] 6.04 µM | [42] 7.16 µM | [43] 14.2 µM | [44] 3.4 µM | [45] 8.24 µM | [46] 4.02 µM | [47] 5.33 µM | [48] 16.1 µM | [50] > 20.4 µM | [51] 26.9 µM | [53] 5.6 µM | [54] 21.2 µM | [55] 21.1 µM | [56] 2.72 µM | [57] 3.56 µM
